In brackets after ≈: the same amount, converted by molar mass. Like-named read-outs stand apart in the source and are kept apart here.
How the values were obtained:
HSV-1 = assay: HSV antiviral (ELISA) assay in Vero cells; type: cell-based, herpes simplex virus type 1; settings: read-out: IC50 (ug/ml) HSV
Outline: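 Vero cells in DMEM/2% FBS treated with compound 30 min before HSV-1 infection (MOI 0.006), ~24 h at 37 °C. Viral glycoprotein D measured by cell ELISA with β-galactosidase-linked secondary and fluorogenic methylumbelliferyl galactoside (ex 365/em 450 nm); IC50 versus no-compound fluorescence.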

VZV strain Ellen = assay: VZV antiviral (ELISA) assay in human foreskin fibroblast cells; type: cell-based, varicella-zoster virus
Outline: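 HFF cells infected with VZV Ellen (MOI <0.1) overnight, then plated at 3.5x10^4 cells/well with compound in DMEM + 2% FBS for three days at 37°C, 5% CO2. Viral glycoprotein II quantified by ELISA with β-galactosidase-linked secondary and 4-methylumbelliferyl-galactoside fluorescence (365/450 nm); IC50 versus no-compound fluorescence.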

[1] = system: HCMV recombinant mutant virus; assay: microbe, parasite or virus in culture; type: cell-based, human cytomegalovirus; settings: Human betaherpesvirus 5, read-out: IC50 (ug/ml) HCMV
Outline: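 Human foreskin fibroblasts were infected with a recombinant HCMV carrying a beta-glucuronidase gene under a viral promoter, in the presence of compound. At 96 h post-infection, lysate beta-glucuronidase activity was read colorimetrically or fluorometrically as a replication marker. IC50 came from the compound dose range.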

[2] = Human alphaherpesvirus 1, HSV-1 in Vero cells
[3] = Human alphaherpesvirus 3; VZV strain Ellen in HFF cells; read-out: IC50 (ug/ml) VZV
[4] = Human alphaherpesvirus 3, Fibroblast; read-out: % inhibition 10 ug/ml VZV

Structure (SMILES) | IC50 (HSV-1; [2]) [µg/mL] | IC50 (VZV strain Ellen; [3]) [µg/mL] | IC50 [1] [µg/mL] | inhibition at 10 µg/mL (VZV strain Ellen; [4]) [%] | IC50 (HSV-1; Human alphaherpesvirus 1, Vero) [µg/mL] | inhibition at 10 µg/mL (VZV strain Ellen; Human alphaherpesvirus 3, Fibroblast, read-out: % inhibition 10 ug/ml VZV) [%] | IC50 (VZV strain Ellen; Human alphaherpesvirus 3, HFF, read-out: IC50 (ug/ml) VZV) [µg/mL]
CC(NC(=S)Nc1ccc(NC(=O)c2ccccc2F)c(C#N)c1)c1ccc(F)cc1 (stereo not shown) [Example 1040, N-(2-Cyano-4-{3-[1-(4-fluoro-phenyl)-ethyl]-thioureido}-phenyl)-2-fluoro-benzamide] | > 10 | 0.05 (≈ 0.115 µM) | > 10 |  |  |  | 
CC(NC(=S)Nc1ccc(NC(=O)c2ccccc2F)c(OCC#N)c1)c1ccc(C#N)cc1 (stereo not shown) [Example 1063, N-[4-{3-[1-(4-Cyano-phenyl)-ethyl]-thioureido}-2-(2-nitrilo-ethoxy)-phenyl]-2-fluoro-benzamide] | > 10 | 0.64 (≈ 1.35 µM) | 3.6 (≈ 7.6 µM) |  |  |  | 
Cc1cc(NC(=S)NC(C)c2ccc(F)cc2)ccc1NC(=O)c1ccccc1F (stereo not shown) [Example 1045, 2-Fluoro-N-(4-{3-[1-(4-fluoro-phenyl)-ethyl]-thioureido}-2-methyl-phenyl)-benzamide] | 6.2 (≈ 14.6 µM) | 0.05 (≈ 0.118 µM) | 1.5 (≈ 3.53 µM) |  |  |  | 
COc1cc(OC)c(NC(=S)Nc2ccc(NC(=O)c3ccccc3F)cc2C)cc1Cl [Example 295, N-{4-[3-(5-Chloro-2,4-dimethoxy-phenyl)-thioureido]-3-methyl-phenyl}-2-fluoro-benzamide] | 0.15 (≈ 0.316 µM) | > 10 | > 10 | 20 |  |  | 
COc1cc(NC(=O)c2ccccc2F)ccc1NC(=S)Nc1cc(Cl)c(C)cc1OC [Example 418, N-{4-[3-(5-Chloro-2-methoxy-4-methyl-phenyl)-thioureido]-3-methoxy-phenyl}-2-fluoro-benzamide] | 0.05 (≈ 0.105 µM) | > 10 | 3 (≈ 6.33 µM) | 10 |  |  | 
CC(=O)Nc1ccc(NC(=S)Nc2ccc(NC(=O)c3ccccc3)c(Cl)c2)cc1 [Example 400, N-{4-[3-(4-Acetylamino-phenyl)-thioureido]-2-chloro-phenyl}-benzamide] | > 10 | > 10 | > 10 | 15 |  |  | 
CC(NC(=S)Nc1ccc(NC(=O)c2nccc3ccccc23)c(C(F)(F)F)c1)c1ccc(F)cc1 (stereo not shown) [Example 1066, Isoquinoline-1-carboxylic acid (4-{3-[1-(4-fluoro-phenyl)-ethyl]-thioureido}-2-trifluoromethyl-phenyl)-amide] | 1.9 (≈ 3.71 µM) | 0.02 (≈ 0.039 µM) | 1.8 (≈ 3.51 µM) |  |  |  | 
COc1cc(NC(=S)NC(C)c2ccc(C#N)cc2)c(OC)cc1NC(=O)c1ccccc1F (stereo not shown) [Example 1024, N-(4-{3-[1-(4-Cyano-phenyl)-ethyl]-thioureido}-2,5-dimethoxy-phenyl)-2-fluoro-benzamide] | > 10 | > 10 | > 10 |  |  |  | 
COc1cc(OC)c(NC(=S)Nc2cc(OC)c(NC(=O)c3ccccc3F)cc2OC)cc1Cl [Example 260, N-{4-[3-(5-Chloro-2,4-dimethoxy-phenyl)-thioureido]-2,5-dimethoxy-phenyl}-2-fluoro-benzamide] |  |  | > 10 |  | > 10 | 18 | 7 (≈ 13.5 µM)
Cc1cc(NC(=S)NC(C)c2ccc(F)cc2)ccc1NC(=O)c1cc2ccccc2cn1 (stereo not shown) [Example 1074, Isoquinoline-3-carboxylic acid (4-{3-[1-(4-fluoro-phenyl)-ethyl]-thioureido}-2-methyl-phenyl)-amide] | 5.8 (≈ 12.6 µM) | 0.07 (≈ 0.153 µM) | 4 (≈ 8.72 µM) |  |  |  | 

Reference: EP1137632B1, “THIOUREA INHIBITORS OF HERPES VIRUSES” (Wyeth, priority 1998, dated 2000)
